We go through 30 compounds from PMC9959258, “Discovery of Polyphenolic Natural Products as SARS-CoV-2 M^pro Inhibitors for COVID-19” (Pharmaceuticals, 2023).

Entries after “also recorded” stand apart in the source; their conditions may differ. Where two headings read alike, the source gives them in different places.

One data set deals with SARS-CoV-2 M^pro (Severe acute respiratory syndrome coronavirus 2, UniProt P0DTD1). As to the kind of experiment: biochemical. The format is biochemical. The following applies: for inhibition at 10 µM: read-out: SARS-CoV-2 M^pro % Inhibition at 10 μM; for M^pro inhibition, result in words: tested at 10 µM.
Data set [1] concerns SARS-CoV-2 isolate NK, Pango lineage B.1.513. Briefly: microbe, parasite or virus in culture. The format is cell-based. The following applies: for inhibition of viral titers: 10 µM; for EC50: read-out: EC50 antiviral activity; for inhibition at 10 µM: Severe acute respiratory syndrome coronavirus 2, Calu-3, 24 h, read-out: inhibition of viral titers.
The nature of data set [2]: Dynamic light scattering (DLS) for colloidal particle formation. The format is physicochemical. The following applies: 31.6 µM, 50 mM KPi pH 7.0, 1% DMSO.
Data set [3] addresses T1, malate dehydrogenase (MDH) (Sus scrofa, UniProt P00346).
T1 sequence (P00346 25-338): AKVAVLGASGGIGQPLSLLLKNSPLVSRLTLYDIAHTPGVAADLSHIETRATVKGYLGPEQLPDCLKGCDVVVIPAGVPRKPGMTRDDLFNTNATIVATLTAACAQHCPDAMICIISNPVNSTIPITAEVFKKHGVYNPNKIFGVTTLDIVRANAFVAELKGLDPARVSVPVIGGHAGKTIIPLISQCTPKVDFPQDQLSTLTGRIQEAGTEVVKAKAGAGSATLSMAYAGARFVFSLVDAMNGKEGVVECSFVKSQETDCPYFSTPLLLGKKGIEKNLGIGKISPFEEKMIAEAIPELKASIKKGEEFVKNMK
The format is biochemical. Conditions: 31.6 µM, with or without 0.01% (v/v) Triton X-100.

The next data set concerns HIV-1 protease. Conditions: background statement, no reference given; cited from earlier work.
Data set [4] deals with prostaglandin E2 (PGE2) synthesis. The following applies: background statement, no reference given; read-out: IC50 for reduction of prostaglandin E2 synthesis; cited from earlier work.
The test system of a further data set is nitric oxide synthesis. Conditions: background statement, no reference given; read-out: IC50 for reduction of nitric oxide synthesis; cited from earlier work.
For another data set, the system named is fatty acid synthase. The following applies: background statement, no reference given; cited from earlier work.
Setting [5] is: FRET assay, 50 nM M^pro, 10 min preincubation.
Setting [6] is: compound at 10 μM, FRET assay, 50 nM M^pro.
[7] abbreviates: Severe acute respiratory syndrome coronavirus 2, 24 h.

Compound `C=C(C)C1CCC2=CC(=O)CC(C)C2(C)C1` (single isomer, unassigned; (+)) [(+)-Nootkaton] had an IC50 against SARS-CoV-2 M^pro (setting [5]) above 10 µM. At SARS-CoV-2 M^pro (setting [6]), the inhibition at 10 µM is 32%.

At SARS-CoV-2 M^pro (setting [5]), `C=C1C(=O)OC2C1CCC(C)=CCCC1(C)OC21` (single isomer, unassigned; (-)) [(−)-Parthenolide] returned an IC50 above 10 µM. Besides, the inhibition at 10 µM on SARS-CoV-2 M^pro (setting [6]) came out at 20.1%.

`CCOC1=C(O)C(=O)O[C@@H]1[C@@H](O)CO` [3-O-Ethyl-L-ascorbic acid]: the 50% inhibitory concentration (IC50) against SARS-CoV-2 M^pro is above 10 µM. The inhibition at 10 µM at SARS-CoV-2 M^pro (setting [6]) was 24.9%.

`CC1=C2C3OC(=O)C(C)C3CCC2(C)C=CC1=O` (stereo not drawn) [(−)-α-Santonin] displayed an IC50 on SARS-CoV-2 M^pro (setting [5]) above 10 µM. Further, at SARS-CoV-2 M^pro (setting [6]), the inhibition at 10 µM came to 24.1%.

Consider `C=C1C(=O)OC2CC3(C)CCCC(C)C3=CC12` (stereo not shown) [Alantolacton], for which, on SARS-CoV-2 M^pro (setting [5]), the IC50 was above 10 µM. For the same compound, the inhibition at 10 µM at SARS-CoV-2 M^pro (setting [6]) amounted to 27.6%.

`C=C1C(=O)O[C@@H]2/C=C(\C)CC/C=C(\C)CC[C@@H]12` [Costunolide]: the half-inhibitory concentration (IC50) on SARS-CoV-2 M^pro (setting [5]) was above 10 µM. The inhibition at 10 µM on SARS-CoV-2 M^pro (setting [6]) stood at 28%.

On SARS-CoV-2 M^pro (setting [5]), `C=C1CC[C@H]2C(=C)CC[C@H]3C(=C)C(=O)O[C@@H]3[C@@H]12` [Dehydrocostus lactone] showed an IC50 above 10 µM. Also, the inhibition at 10 µM at SARS-CoV-2 M^pro (setting [6]) was 13.4%.

On to `O=c1c(O)c(-c2ccc(O)c(O)c2)oc2cc(O)ccc12` [Fisetin], for which the IC50 on SARS-CoV-2 M^pro (setting [5]) was above 10 µM. The “SARS-CoV-2 M^pro % Inhibition at 10 μM” value at SARS-CoV-2 M^pro (setting [6]) is recorded as −11.21%.

Compound `CC(C)=CCC[C@]1(C)C=Cc2c(O)c3c(c(CC=C(C)C)c2O1)O[C@]12C(=C[C@@H]4C[C@H]1C(C)(C)O[C@@]2(C/C=C(/C)C(=O)O)C4=O)C3=O` [Gambogic acid] registered a half-inhibitory concentration (IC50) against SARS-CoV-2 M^pro (setting [5]) above 10 µM. Also, the inhibition at 10 µM at SARS-CoV-2 M^pro (setting [6]) turned out to be 22.8%.

Take `O=C1O[C@H]([C@@H](O)CO)C(O)=C1O` [L-Ascorbic acid]: the concentration for half-maximal inhibition (IC50) on SARS-CoV-2 M^pro (setting [5]) is above 10 µM. For the same compound, the inhibition at 10 µM on SARS-CoV-2 M^pro (setting [6]) is 22.2%.

For the compound `O=C(OC1Cc2c(O)cc(O)cc2OC1c1cc(O)c(O)c(O)c1)c1cc(O)c(O)c(O)c1` [L-Epigallocatechin gallate], in data set [1], the “inhibition of viral titers” value is 81.4% and the EC50 amounted to 0.115 µM. Moreover, the “colloidal-like particle formation by DLS” value in data set [2] (listed as ECGC) is reported as “do not form colloidal-like particles”. Further, the “colloidal-like particle formation by DLS” value in data set [2] (listed as EGCG) was “neither of these compounds produced colloidal-like particles”. The “MDH inhibition with 0.01% Triton X-100 (detergent reversibility)” value in data set [3] is reported as “reversed in the presence of detergent”. At SARS-CoV-2 M^pro (setting [6]), the inhibition at 10 µM worked out at 105%. The “M^pro inhibition, result in words” value at SARS-CoV-2 M^pro is “completely inhibit the SARS-CoV-2 M^pro activity”.

In turn, `COC(=O)C1=CO[C@@H](O[C@@H]2O[C@H](CO)[C@@H](O)[C@H](O)[C@H]2O)[C@@H]2[C@@H](C)[C@@H](O)C[C@H]12` [Loganin] returned an IC50 against SARS-CoV-2 M^pro above 10 µM. Moreover, the inhibition at 10 µM on SARS-CoV-2 M^pro (setting [6]) was 29.4%.

`O=c1cc(-c2ccc(O)c(O)c2)oc2cc(O)cc(O)c12` [Luteoline] yielded a half-maximal inhibitory concentration (IC50) at SARS-CoV-2 M^pro (setting [5]) above 10 µM. The inhibition at 10 µM at SARS-CoV-2 M^pro (setting [6]) was 9.65%. For the same compound, the “M^pro inhibition, result in words” value at SARS-CoV-2 M^pro is listed as “unable to inhibit M^pro”.

`CC(C)C(=O)OC[C@H]1O[C@@H](n2ccc(NO)nc2=O)[C@H](O)[C@@H]1O` [Molnupiravir, reference compound]: in data set [1] (setting [7]), the EC50 turned out to be 0.00545 µM.

For `C=C1C(=O)[C@]23[C@H](O)[C@H]1CC[C@H]2[C@@]12CO[C@]3(O)[C@@H](O)[C@@H]1C(C)(C)CC[C@@H]2O` [Oridonin], the concentration for a half-maximal effect (EC50) in data set [1] (setting [7]) amounted to 0.0128 µM. In addition, the inhibition at 10 µM in data set [1] came to 89%; at SARS-CoV-2 M^pro (setting [6]) it was 81.9%.

For `CCCCCCCCCCC[C@@H](C[C@@H]1OC(=O)[C@H]1CCCCCC)OC(=O)[C@H](CC(C)C)NC=O` [Orlistat, reference compound], the IC50 against SARS-CoV-2 M^pro (setting [5]) is above 10 µM. Besides, the inhibition at 10 µM at SARS-CoV-2 M^pro (setting [6]) came to 21%.

`COc1ccc2ccc(=O)oc2c1CC=C(C)C` [Osthole]: the half-inhibitory concentration (IC50) on SARS-CoV-2 M^pro (setting [5]) was above 10 µM. Moreover, on SARS-CoV-2 M^pro (setting [6]), the inhibition at 10 µM stood at 4.98%.

Take `Oc1cc(O)cc(/C=C/c2ccc(O)c(O)c2)c1` [Piceatannol]: the 50% effective concentration (EC50) in data set [1] (setting [7]) amounted to 0.00342 µM. The inhibition at 10 µM turned out to be 81% in data set [1] and 76.9% at SARS-CoV-2 M^pro (setting [6]). Half-maximal inhibition against SARS-CoV-2 M^pro (setting [5]) (IC50) required 2.03 µM.

Consider `C[C@@H]1O[C@@H](Oc2c(-c3ccc(O)c(O)c3)oc3cc(O)cc(O)c3c2=O)[C@H](O)[C@H](O)[C@H]1O` [Quercitrin], for which the IC50 against SARS-CoV-2 M^pro (setting [5]) was above 10 µM. For the same compound, the inhibition at 10 µM on SARS-CoV-2 M^pro (setting [6]) worked out at 2.42%. Besides, at SARS-CoV-2 M^pro, the “M^pro inhibition, result in words” value is reported as “unable to inhibit the M^pro enzyme”.

`C[C@]12CC[C@H](O)C[C@H]1CC[C@@H]1[C@@H]2CC[C@]2(C)[C@@H](c3ccc(=O)oc3)C[C@H]3O[C@]132` [Resibufogenin]: on SARS-CoV-2 M^pro, the 50% inhibitory concentration (IC50) was above 10 µM and the inhibition at 10 µM came out at 6.32%.

Compound `Oc1ccc(/C=C/c2cc(O)cc(O)c2)cc1` [Resveratrol] gave an IC50 at SARS-CoV-2 M^pro (setting [5]) above 10 µM. Besides, the inhibition at 10 µM at SARS-CoV-2 M^pro (setting [6]) amounted to 5.96%. Also, on SARS-CoV-2 M^pro, the “M^pro inhibition, result in words” value is given as “unable to inhibit the enzyme”.

In the case of `O=c1c(O)c(-c2cc(O)c(O)c(O)c2)oc2cc(O)ccc12` [Robinetin], in data set [1], the “inhibition of viral titers” value is reported as 89.6% and the 50% effective concentration (EC50) came to 0.0013 µM. The “colloidal-like particle formation by DLS” value in data set [2] was “neither of these compounds produced colloidal-like particles; also recorded: do not form colloidal-like particles”. For the same compound, the “MDH inhibition with 0.01% Triton X-100 (detergent reversibility)” value in data set [3] was “reversed in the presence of detergent”. The same compound returned an IC50 on SARS-CoV-2 M^pro (setting [5]) of 0.96 µM. The inhibition at 10 µM at SARS-CoV-2 M^pro (setting [6]) was found to be 86.1%.

As for `O=C(/C=C/c1ccc(O)c(O)c1)O[C@H](Cc1ccc(O)c(O)c1)C(=O)O` [Rosmarinic acid], in data set [1] (setting [7]), the EC50 is 0.0167 µM. Also, the inhibition at 10 µM in data set [1] turned out to be 81%; at SARS-CoV-2 M^pro (setting [6]), 50.6%. The same compound gave an IC50 on SARS-CoV-2 M^pro (setting [5]) of 6.84 µM.

For `O=C(/C=C/c1ccc(O)c(O)c1/C=C/c1ccc(O)c(O)c1)O[C@H](Cc1ccc(O)c(O)c1)C(=O)O` [Salvianolic acid A], the inhibition at 10 µM at SARS-CoV-2 M^pro (setting [6]) is 50.8%.

For the compound `O=c1cc(-c2ccc(O)cc2)oc2cc(O)c(O)c(O)c12` [Scutellarein], the EC50 in data set [1] (setting [7]) is 0.00257 µM. In addition, the figures for the inhibition at 10 µM (in data set [1]; on SARS-CoV-2 M^pro (setting [6])) were 87% and 76.1%, respectively.

`COC1=C[C@@H]2[C@@H]3Cc4ccc(OC)c(O)c4[C@]2(CCN3C)CC1=O` [Sinomenine]: at SARS-CoV-2 M^pro, the IC50 was above 10 µM and the inhibition at 10 µM was found to be 4.8%.

Consider `Cc1coc2c1C(=O)C(=O)c1c-2ccc2c(C)cccc12` [Tanshinone I], for which the inhibition at 10 µM at SARS-CoV-2 M^pro (setting [6]) was 7.03%.

Compound `O=c1cc(-c2cc(O)c(O)c(O)c2)oc2cc(O)cc(O)c12` [Tricetin] came in with a concentration for half-maximal inhibition (IC50) against SARS-CoV-2 M^pro (setting [5]) of 7.84 µM. At SARS-CoV-2 M^pro (setting [6]), the inhibition at 10 µM was found to be 72.3%.

For the compound `COc1c(O)cc2oc3cc(O)c(CC=C(C)C)c(O)c3c(=O)c2c1CC=C(C)C` [α-Mangostin], the IC50 is 5.12 µM in the data set on HIV-1 protease; 12.4 µM in data set [4]; 11.1 µM with nitric oxide synthesis; 5.54 µM in the data set with fatty acid synthase; 25.1 µM at SARS-CoV-2 M^pro (setting [5]).

As for Myricitrin, the “SARS-CoV-2 M^pro % Inhibition at 10 μM” value at SARS-CoV-2 M^pro (setting [6]) came out at 11.67%. Further, the “M^pro inhibition, result in words” value on SARS-CoV-2 M^pro is “did not, however, inhibit M^pro”; on SARS-CoV-2 M^pro (listed as myricitrin) it was “did not inhibit M^pro”.

In general, IC50 refers to the point on the concentration scale where inhibition reaches its midpoint. The term inhibition denotes the change of the read-out against control, counted positive when it falls. In general, EC50 refers to the concentration needed to bring the measured effect to its halfway point.
